The values below come from patent US20100256333A1, “Peptide-Based Beta Turn Mimetics” (UNIVERSITY OF MANITOBA, priority 2009, published 2010).

The structures appear in SMILES notation. Where a SMILES comes first, the peptide text is derived from it. [ ]: non-standard residue; d: D form.

A short description of series [1]: Prolyl amide cis/trans equilibrium of tetrapeptides by NMR in various solvents. In kind it is physicochemical. Here is the method: Conformational analysis of tetrapeptides 2-11 to 2-13 and 2-16 using NMR. […] The lower tendency of aggregation of glycosylated peptides has previously been reported (runkel et al., 1998). The NMR spectra of all tetrapeptides were measured at the same concentration (8 mM). Intramolecular hydrogen bonding was evaluated by temperature coefficient experiments in DMSO-d6 or H2O/D2O (9/1). Because exchangeable protons engaged in intramolecular hydrogen bonds are typically not influenced by strong hydrogen-bonding solvents (Kopple et al., 1969). The prolyl N-terminal geometry and turn structure were investigated by ROESY experiments (Misicka et al., 1998).
Solvent effects. In addition, the influence of different solvents on the geometry of prolyl N-terminus was studied (Table 14). […] In contrast, peptide 2-12 and reference peptide 2-16 display a solvent effect.

For series [2] the following is noted: in CD2Cl2; cited from earlier work.

Regarding `CC(=O)N[C@@H](CC(C)C)C(=O)N[C@H](Cc1ccccc1)C(=O)N1CCC[C@H]1C(=O)N[C@H](C(=O)N(C)C)C(C)C` [Compound 2-16, Ac-Leu-D-Phe-Pro-Val-NMe2] (Ac-L[dF]PV-NMe2), the “Equilibrium constant Kt/c” value is given as 19.00 in series [1] (CD2Cl2, 500 MHz NMR at 25° C.); 3.17 in series [1] (CD3OD, 500 MHz NMR at 25° C.); 1.32 in series [1] (DMSO-d6, 500 MHz NMR at 25° C.). The “Concentration at which peptide aggregated” value in series [2] was no less than 10000 µM.
